The structures appear in SMILES notation.

For test [1], the target named is T1, IRAK1 (Homo sapiens, UniProt P51617). The test can be described thus: RBC HotSpot Kinase Assay, IRAK1. Particulars: IRAK1 IC50.
The target of test [2] is T2, FLT3 D835Y (Homo sapiens, UniProt P36888, D835Y).
T2 construct: purchased DiscoverX (KINOMEscan)
T2 sequence (P36888 27-993 D835Y): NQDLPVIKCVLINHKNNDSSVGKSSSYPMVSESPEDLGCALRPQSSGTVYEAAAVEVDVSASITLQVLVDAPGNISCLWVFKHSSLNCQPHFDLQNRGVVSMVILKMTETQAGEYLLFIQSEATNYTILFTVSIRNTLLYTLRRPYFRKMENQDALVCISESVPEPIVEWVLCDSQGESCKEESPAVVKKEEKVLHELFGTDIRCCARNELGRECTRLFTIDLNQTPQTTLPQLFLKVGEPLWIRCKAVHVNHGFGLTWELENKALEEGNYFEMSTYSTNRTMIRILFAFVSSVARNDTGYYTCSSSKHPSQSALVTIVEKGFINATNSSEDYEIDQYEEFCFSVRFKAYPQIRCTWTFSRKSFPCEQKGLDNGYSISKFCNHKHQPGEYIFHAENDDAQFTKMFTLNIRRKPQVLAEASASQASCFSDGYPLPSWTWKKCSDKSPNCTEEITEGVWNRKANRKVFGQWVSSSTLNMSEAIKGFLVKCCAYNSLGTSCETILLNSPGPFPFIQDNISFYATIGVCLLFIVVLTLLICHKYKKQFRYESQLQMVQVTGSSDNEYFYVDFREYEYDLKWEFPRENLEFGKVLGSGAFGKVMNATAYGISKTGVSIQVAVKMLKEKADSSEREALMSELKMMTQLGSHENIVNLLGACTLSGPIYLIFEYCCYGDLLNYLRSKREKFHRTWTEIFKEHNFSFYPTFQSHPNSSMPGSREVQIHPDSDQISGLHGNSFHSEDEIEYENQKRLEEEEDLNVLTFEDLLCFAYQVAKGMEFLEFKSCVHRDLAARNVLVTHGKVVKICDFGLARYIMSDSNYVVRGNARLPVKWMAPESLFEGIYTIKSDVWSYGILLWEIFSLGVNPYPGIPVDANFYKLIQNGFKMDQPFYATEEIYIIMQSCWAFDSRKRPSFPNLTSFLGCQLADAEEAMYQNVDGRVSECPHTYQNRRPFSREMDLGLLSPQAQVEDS
The test can be described thus: DiscoverX KINOMEscan competition binding, FLT3 D835Y.

Test [3] addresses T3, FLT3 ITD, F691L (Homo sapiens, UniProt P36888, F691L, form not given).
T3 sequence (P36888 1-993 F691L): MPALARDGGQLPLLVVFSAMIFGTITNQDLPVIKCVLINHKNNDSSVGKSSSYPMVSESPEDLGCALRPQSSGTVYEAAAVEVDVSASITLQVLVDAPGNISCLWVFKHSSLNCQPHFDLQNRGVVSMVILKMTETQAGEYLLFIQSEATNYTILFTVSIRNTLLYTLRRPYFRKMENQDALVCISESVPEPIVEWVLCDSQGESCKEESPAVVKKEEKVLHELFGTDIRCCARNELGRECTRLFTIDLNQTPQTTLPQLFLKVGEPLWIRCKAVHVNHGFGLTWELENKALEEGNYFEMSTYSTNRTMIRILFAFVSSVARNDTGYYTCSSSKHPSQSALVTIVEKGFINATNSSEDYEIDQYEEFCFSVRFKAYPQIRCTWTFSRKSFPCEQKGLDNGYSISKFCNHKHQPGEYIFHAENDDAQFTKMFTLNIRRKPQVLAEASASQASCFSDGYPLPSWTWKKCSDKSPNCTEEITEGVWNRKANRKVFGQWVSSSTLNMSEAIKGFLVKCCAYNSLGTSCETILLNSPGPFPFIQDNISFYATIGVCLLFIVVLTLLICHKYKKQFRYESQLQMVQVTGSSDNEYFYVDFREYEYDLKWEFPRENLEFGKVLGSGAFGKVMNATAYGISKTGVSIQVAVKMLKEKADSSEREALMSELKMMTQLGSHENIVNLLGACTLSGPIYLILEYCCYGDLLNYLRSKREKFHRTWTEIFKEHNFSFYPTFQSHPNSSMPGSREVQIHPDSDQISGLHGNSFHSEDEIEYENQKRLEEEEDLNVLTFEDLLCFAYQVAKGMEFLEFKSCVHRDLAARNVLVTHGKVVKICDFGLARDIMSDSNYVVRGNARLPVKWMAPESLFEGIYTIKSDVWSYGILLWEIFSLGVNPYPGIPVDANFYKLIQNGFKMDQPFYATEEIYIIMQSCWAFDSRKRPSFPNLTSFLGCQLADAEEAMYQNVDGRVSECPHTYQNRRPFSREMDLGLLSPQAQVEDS
The experiment in a line: DiscoverX KINOMEscan competition binding, FLT3 ITD, F691L. The conditions noted are these: read-out: FLT3 ITD, F691L Kd.

The target in test [4] is T1, IRAK1. The experiment in a line: DiscoverX KINOMEscan competition binding, IRAK1. Further details: purchased RBC (Reaction Biology) HotSpot assay.

T1 sequence (P51617 whole entry): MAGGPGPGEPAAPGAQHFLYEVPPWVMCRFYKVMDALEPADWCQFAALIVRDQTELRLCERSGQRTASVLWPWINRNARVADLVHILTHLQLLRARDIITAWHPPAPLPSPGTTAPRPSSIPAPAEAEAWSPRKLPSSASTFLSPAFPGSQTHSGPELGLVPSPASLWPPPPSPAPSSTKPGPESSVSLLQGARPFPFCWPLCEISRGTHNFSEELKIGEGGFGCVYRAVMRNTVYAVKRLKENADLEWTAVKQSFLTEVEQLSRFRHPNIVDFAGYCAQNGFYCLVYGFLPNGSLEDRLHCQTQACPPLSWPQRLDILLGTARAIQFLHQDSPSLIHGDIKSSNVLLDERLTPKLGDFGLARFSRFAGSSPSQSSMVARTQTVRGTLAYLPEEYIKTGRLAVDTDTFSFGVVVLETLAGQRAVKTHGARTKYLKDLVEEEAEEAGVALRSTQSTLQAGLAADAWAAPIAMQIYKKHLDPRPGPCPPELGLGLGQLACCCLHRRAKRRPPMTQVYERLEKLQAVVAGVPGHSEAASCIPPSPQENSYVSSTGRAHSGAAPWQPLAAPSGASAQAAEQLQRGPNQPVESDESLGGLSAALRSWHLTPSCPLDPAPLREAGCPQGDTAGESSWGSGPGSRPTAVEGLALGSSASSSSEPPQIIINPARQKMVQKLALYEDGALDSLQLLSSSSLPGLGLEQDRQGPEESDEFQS

The compound `COc1cc2ncc(-c3ccnc(N[C@@H]4CCCNC4)n3)n2nc1C1CC1` [Compound 50, (R)-4-(6-cyclopropyl-7-methoxyimidazo[1,2-b]pyridazin-3-yl)-N-(piperidin-3-yl)pyrimidin-2-amine] had an IC50 in test [1] of 63 nM.

Consider `F[C@H]1CCNC[C@@H]1Nc1cncc(-c2cnc3cc(OC4CC4)ccn23)n1` [Compound 12, 6-(7-cyclopropoxyimidazo[1,2-a]pyridin-3-yl)-N-((3S,4S)-4-fluoropiperidin-3-yl)pyrazin-2-amine], for which the dissociation constant (Kd) in test [2] was 1.1 nM; in test [3], 0.046 nM; in test [4] it was 7.5 nM. Inhibition in test [1] was half-maximal at 18 nM (IC50).

As to `COc1cc2ncc(-c3ccnc(N[C@H]4CNCC[C@@H]4F)n3)n2nc1C1CC1` [Compound 51, 4-(6-cyclopropyl-7-methoxyimidazo[1,2-b]pyridazin-3-yl)-N-((3S,4S)-4-fluoropiperidin-3-yl)pyrimidin-2-amine], the figures for the Kd in test [2], in test [3] and in test [4] were 0.35 nM, 0.08 nM and 2.4 nM, respectively. In test [1], this compound gave a half-maximal inhibitory concentration (IC50) of 11 nM.

For `COc1cc2ncc(-c3cncc(N[C@H]4CNCC[C@@H]4F)n3)n2nc1C1CC1` [Compound 24, 6-(6-cyclopropyl-7-methoxyimidazo[1,2-b]pyridazin-3-yl)-N-((3S,4S)-4-fluoropiperidin-3-yl)pyrazin-2-amine], the Kd in test [2] worked out at 0.74 nM; in test [3], 0.048 nM; in test [4], 5.3 nM. The compound also had an IC50 in test [1] of 40 nM.

Take `COc1cc2ncc(-c3ccnc(N[C@@H]4CCCNC4)n3)n2cc1C(C)(C)O` [Compound 44, (R)-2-(7-methoxy-3-(2-(piperidin-3-ylamino)pyrimidin-4-yl)imidazo[1,2-a]pyridin-6-yl)propan-2-ol]: the Kd worked out at 0.15 nM in test [2], 0.092 nM in test [3] and 0.3 nM in test [4]. The compound further returned an IC50 in test [1] of 1 nM.

Regarding `COc1cc2ncc(-c3cncc(N[C@H]4CNC[C@@H]4F)n3)n2nc1C1CC1` [Compound 22, 6-(6-cyclopropyl-7-methoxyimidazo[1,2-b]pyridazin-3-yl)-N-((3S,4S)-4-fluoropyrrolidin-3-yl)pyrazin-2-amine], the Kd was 0.6 nM in test [2], 0.078 nM in test [3] and 6.4 nM in test [4]. This compound also returned an IC50 in test [1] of 61 nM.

As to `CC(O)(c1cn2c(-c3ccnc(N[C@H]4CNCC[C@@H]4F)n3)cnc2cn1)C(F)(F)F` (single isomer, unassigned) [Compound 72], the Kd in test [2] was determined as 0.69 nM; in test [3] it was 1.8 nM; in test [4], 1.5 nM. In test [1], this compound had an IC50 of 3 nM.

As to `COc1cc2ncc(-c3ccnc(N[C@H]4CNC[C@@H]4F)n3)n2nc1C1CC1` [Compound 49, 4-(6-cyclopropyl-7-methoxyimidazo[1,2-b]pyridazin-3-yl)-N-((3S,4S)-4-fluoropyrrolidin-3-yl)pyrimidin-2-amine], the results for the Kd in test [2], in test [3] and in test [4] were 0.41 nM, 0.085 nM and 2.6 nM, respectively. The compound further registered a concentration for half-maximal inhibition (IC50) in test [1] of 11 nM.

A word on the IC50: it is the midpoint of a concentration-inhibition curve. Read a high IC50 as lower potency. The term Kd denotes the concentration at which binding is half-saturated.

(Values after US20250154144A1 (CHILDREN'S HOSPITAL MEDICAL CENTER, priority 2021, published 2025).)
